In the experiment the test system is purified AdhE proteins in C. thermocellum, with the exception of LL346. The experiment can be described thus: Product inhibition of purified AdhE. The format is biochemical, Clostridium thermocellum. Particulars: concentration not stated. On the procedure: The E. coli crude extracts described above were incubated at 50° C. anaerobically for 20 min to denature E. coli proteins, and the denatured proteins were separated by centrifugation. In strains LL346 and LL1040, the AdhE proteins were heat labile, and lost activity after 50° C. incubation, so these cell extracts were applied directly to the purification column without heating. E. coli cells expressing the control plasmid pNT-CALML3 were subject to the same treatment as above, and its ADH and ALDH activities before and after heat treatment were measured (Table S3). […] For C. thermocellum and T. saccharolyticum AdhE, activity was measured at various stages during purification. […]
All the ALDH activity measurements mentioned in this study refer to the reaction in the acetaldehyde-producing direction. […] Decrease in absorbance at 340 nm caused by NAD(P)H oxidation was monitored by an Agilent 8453 UV-Vis spectrophotometer with Peltier temperature control. Protein concentration was determined using the Bradford method with bovine serum albumin (Thermo Scientific) as the standard. Specific activities are expressed as units per mg of protein. […] The software Visual Enzymics (SoftZymics) was used for non-linear regression to calculate the apparent Km, and kcat values in Table 10. kcat was calculated on the basis of a molecular weight of 97-kDa (26). […]

Consider NAD(P)^+, for which the “activity inhibited by NAD(P)^+” value was “at least 70%”.

The values are drawn from patent US20180195091A1, “THERMOPHILIC MICROORGANISMS FOR CONVERSION OF LIGNOCELLULOSIC BIOMASS TO ETHANOL” (THE TRUSTEES OF DARTMOUTH COLLEGE, priority 2015, published 2018).
